From ChEMBL document CHEMBL4028900, “Design of Novel 3-Pyrimidinylazaindole CDK2/9 Inhibitors with Potent In Vitro and In Vivo Antitumor Efficacy in a Triple-Negative Breast Cancer Model” (J Med Chem, 2017)

What was measured:
CDK2/Cyclin A2 = CDK2/Cyclin A2 (Homo sapiens, UniProt P24941); assay: Inhibition of CDK2/cyclin A (unknown origin) using histone H1 as substrate after 30 mins in presence of [33P]-gamma-ATP; assay type: protein-complex assay
CDK9/cyclin T1 = CDK9/cyclin T1 (Homo sapiens, UniProt P50750); assay type: protein-complex assay
[1] = biological target: CDK2/Cyclin A2 (Homo sapiens) (UniProt P24941+P20248); settings: at 500 nM
Description: Inhibition of CDK2/cyclin A (unknown origin) at 500 nM using histone H1 as substrate after 30 mins in presence of [33P]-gamma-ATP relative to control

[2] = biological target: CDK9/cyclin T1 (Homo sapiens) (UniProt O60563+P50750); settings: at 500 nM
HCT-116 = assay: Antiproliferative activity against human HCT116 cells after 72 hrs by SRB assay; settings: HCT-116, 72 h
SH-SY5Y = assay: Antiproliferative activity against human SH-SY5Y cells after 24 hrs by MTT assay; assay type: functional, cell-based

CDK9/cyclin T1, sequence (O60563 whole entry): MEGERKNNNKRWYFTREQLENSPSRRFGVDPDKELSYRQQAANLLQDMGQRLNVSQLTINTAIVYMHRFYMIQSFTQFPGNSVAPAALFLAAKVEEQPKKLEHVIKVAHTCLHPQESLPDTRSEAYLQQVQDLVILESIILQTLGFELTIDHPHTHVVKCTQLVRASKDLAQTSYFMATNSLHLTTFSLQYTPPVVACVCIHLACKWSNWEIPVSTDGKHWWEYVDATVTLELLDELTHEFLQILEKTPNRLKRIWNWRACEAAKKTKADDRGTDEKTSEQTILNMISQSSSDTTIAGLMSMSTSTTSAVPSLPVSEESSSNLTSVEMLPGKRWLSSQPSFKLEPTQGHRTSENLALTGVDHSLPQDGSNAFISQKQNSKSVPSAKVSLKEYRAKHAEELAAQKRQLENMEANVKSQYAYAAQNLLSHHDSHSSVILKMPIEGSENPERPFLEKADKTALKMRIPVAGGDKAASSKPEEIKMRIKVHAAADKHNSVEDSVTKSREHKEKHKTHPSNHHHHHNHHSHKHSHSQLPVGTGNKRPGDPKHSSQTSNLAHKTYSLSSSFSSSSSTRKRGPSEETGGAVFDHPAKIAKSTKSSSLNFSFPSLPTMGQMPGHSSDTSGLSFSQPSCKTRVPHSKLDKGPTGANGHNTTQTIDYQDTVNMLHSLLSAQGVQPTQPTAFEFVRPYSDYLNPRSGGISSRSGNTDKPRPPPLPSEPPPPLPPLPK
CDK9/cyclin T1, sequence (P50750 whole entry): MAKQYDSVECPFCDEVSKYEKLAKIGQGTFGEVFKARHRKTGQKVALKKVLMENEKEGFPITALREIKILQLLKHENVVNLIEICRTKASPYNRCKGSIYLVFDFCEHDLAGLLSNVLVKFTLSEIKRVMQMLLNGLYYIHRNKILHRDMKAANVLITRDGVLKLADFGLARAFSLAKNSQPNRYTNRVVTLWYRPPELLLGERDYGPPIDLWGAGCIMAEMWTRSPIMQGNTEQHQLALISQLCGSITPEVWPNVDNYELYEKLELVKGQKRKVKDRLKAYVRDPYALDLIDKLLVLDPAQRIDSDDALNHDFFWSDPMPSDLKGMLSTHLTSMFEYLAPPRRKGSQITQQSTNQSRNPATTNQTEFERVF

IC50 (CDK2/Cyclin A2) | IC50 (CDK9/cyclin T1) | inhibition [1] | inhibition [2] | IC50 (HCT-116) | IC50 (SH-SY5Y) | SMILES
 |  |  |  | 1500 nM | 400 nM | Nc1nccc(-c2c[nH]c3ncc(-c4ccc(OC(F)(F)F)cc4)cc23)n1
300 nM | 800 nM | 74% | 71.9% |  |  | c1cnc2[nH]cc(-c3ccnc(N4CCCCC4)n3)c2c1
75 nM | 213 nM | 79.3% | 70.4% |  |  | CCc1ccccc1-c1cnc2[nH]cc(-c3ccnc(N)n3)c2c1
4 nM | 38 nM | 97.7% | 91% | 9500 nM |  | COc1ccc(CCNc2nccc(-c3c[nH]c4ncccc34)n2)cc1
 |  | 28.4% | 50.9% |  |  | Nc1nccc(-c2cn(S(=O)(=O)c3ccc(C(F)(F)F)cc3)c3ncccc23)n1
 |  | 55.2% | 50.3% |  |  | Cn1cncc1S(=O)(=O)n1cc(-c2ccnc(N)n2)c2cccnc21
 |  | 48.7% | 52.2% |  |  | Nc1nccc(-c2cn(S(=O)(=O)c3ccc4c(c3)OCCO4)c3ncccc23)n1
1 nM | 35 nM | 95.1% | 93.5% | 600 nM | 3300 nM | Nc1nccc(-c2c[nH]c3ncc(-c4ccsc4)cc23)n1
231 nM | 642 nM | 73.3% | 72.9% |  |  | c1cnc2[nH]cc(-c3ccnc(N4CCOCC4)n3)c2c1
22 nM | 59 nM | 89.2% | 85% |  |  | COc1ccc(CCNc2nccc(-c3c[nH]c4ncccc34)n2)cc1OC
1090 nM | 625 nM | 24.2% | 47.4% |  |  | COc1ccc2ccccc2c1-c1cnc2[nH]cc(-c3ccnc(N)n3)c2c1
10 nM | 52 nM | 89.7% | 88% |  |  | c1ccc2c(CCNc3nccc(-c4c[nH]c5ncccc45)n3)c[nH]c2c1

The next lines start with the compound.

SMILES | IC50 (CDK2/Cyclin A2) | IC50 (CDK9/cyclin T1) | inhibition [1] | inhibition [2] | IC50 (HCT-116) | IC50 (SH-SY5Y)
COc1ccc2[nH]c(-c3cnc4[nH]cc(-c5ccnc(N)n5)c4c3)cc2c1 | 16 nM | 342 nM | 90.2% | 82.4% |  | 
Nc1nccc(-c2c[nH]c3ncc(-c4cccc(C(F)(F)F)c4)cc23)n1 | 10 nM | 47 nM | 93.4% | 86.5% |  | 
Nc1nccc(-c2cn(S(=O)(=O)c3ccc(F)cc3)c3ncccc23)n1 |  |  | 22.6% | 40% |  | 
Nc1nccc(-c2cn(S(=O)(=O)c3ccc(OC(F)(F)F)cc3)c3ncccc23)n1 |  |  | 31.3% | 54.4% |  | 
CN1CCN(c2nccc(-c3c[nH]c4ncccc34)n2)CC1 | 350 nM | 700 nM | 71.6% | 70.5% |  | 
Nc1nccc(-c2c[nH]c3ncc(-c4cccc5ccccc45)cc23)n1 | 182 nM | 159 nM | 79.2% | 84% |  | 
CC(=O)Nc1ccc(S(=O)(=O)n2cc(-c3ccnc(N)n3)c3cccnc32)cc1 |  |  | 36.3% | 44.2% |  | 
CSc1ccccc1-c1cnc2[nH]cc(-c3ccnc(N)n3)c2c1 | 24 nM | 45 nM | 78.7% | 93.7% |  | 
c1cnc2[nH]cc(-c3ccnc(N4CCCC4)n3)c2c1 | 160 nM | 450 nM | 78.3% | 77.2% |  | 
Cc1cccc(-c2cnc3[nH]cc(-c4ccnc(N)n4)c3c2)c1 |  |  | 84.8% | 82.6% |  | 
Nc1nccc(-c2cn(S(=O)(=O)c3ccc(Br)cc3)c3ncccc23)n1 |  |  | 28.1% | 31.2% |  | 
Nc1nccc(-c2c[nH]c3ncc(-c4cc5ccccc5o4)cc23)n1 | 23 nM | 93 nM | 87.9% | 85% |  | 
Nc1nccc(-c2c[nH]c3ncc(-c4cc5ccccc5s4)cc23)n1 | 12 nM | 82 nM | 92% | 86.4% |  | 
